Literature values in US8591958B2, “Concentrated hydrogen peroxide disinfecting solutions” (priority 2008, dated 2013).
Where two headings read alike, the source gives them in different places.

Test system: Staphylococcus aureus

OO [hydrogen peroxide]
time required to disinfect surfaces contaminated with Staphylococcus aureus (0.1% w/w aqueous solution): about 60 minutes
time required to disinfect surfaces contaminated with Staphylococcus aureus (25.8% w/w aqueous solution, same test conditions): about 20 seconds
